Data on two molecules can be found in patent US7067528B2, “1, 2-dihydro-2-oxo-1, 8-naphthyridine derivative” (Sumitomo Pharmaceuticals Co., Ltd., priority 2001, dated 2006).

Structures can show the parent of a compound that is named as a salt.

A short description of this series: Stability Test: storage at 60° C., 75% R.H., residual amount of the compound by HPLC. The format is physicochemical. Here is the method: The crystals of N-[1-butyl-4-[3-[3-(hydroxy)propoxy]-phenyl]-1,2-dihydro-2-oxo-1,8-naphthyridin-3-yl]-N′-(2,6-diisopropyl-4-aminophenyl)urea hydrochloride monohydrate obtained in Example 1 and amorphous N-[1-butyl-4-[3-[3-(hydroxy)propoxy]phenyl]-1,2-dihydro-2-oxo-1,8-naphthyridin-3-yl]-N′-(2,6-diisopropyl-4-aminophenyl)urea hydrochloride were stored at a temperature of 60° C. under a relative humidity (R.H.) of 75% for 4 weeks. Then, the residual amount of the compound therein was quantitatively analyzed using High Performance Liquid Chromatography (HPLC).

On to `CCCCn1c(=O)c(NC(=O)Nc2c(C(C)C)cc(N)cc2C(C)C)c(-c2cccc(OCCCO)c2)c2cccnc21.Cl` [Amorphous, N-[1-butyl-4-[3-[3-(hydroxy)propoxy]phenyl]-1,2-dihydro-2-oxo-1,8-naphthyridin-3-yl]-N′-(2,6-diisopropyl-4-aminophenyl)urea hydrochloride], for which the “HPLC Area Percentage (%)” value was determined as 97.7% (Initial value, before storage at 60° C. / 75% R.H.); 94.6% (storage period 2 weeks at 60° C., relative humidity 75%); 92.7% (storage period 4 weeks at 60° C., relative humidity 75%).

Take `CCCCn1c(=O)c(NC(=O)Nc2c(C(C)C)cc(N)cc2C(C)C)c(-c2cccc(OCCCO)c2)c2cccnc21` [Example 1, N-[1-butyl-4-[3-[3-(hydroxy)propoxy]phenyl]-1,2-dihydro-2-oxo-1,8-naphthyridin-3-yl]-N′-(2,6-diisopropyl-4-amino-phenyl)urea hydrochloride monohydrate]: the “stability compared with the amorphous hydrochloride” value (60° C., 75% R.H., 4 weeks, conclusion in words from Table 2) is “quite excellent in stability”.
